One experiment has as its target T1, human CYP11B2 (Homo sapiens, UniProt P19099).
T1 construct: expressed in transfected cells
T1 sequence (P19099 25-503): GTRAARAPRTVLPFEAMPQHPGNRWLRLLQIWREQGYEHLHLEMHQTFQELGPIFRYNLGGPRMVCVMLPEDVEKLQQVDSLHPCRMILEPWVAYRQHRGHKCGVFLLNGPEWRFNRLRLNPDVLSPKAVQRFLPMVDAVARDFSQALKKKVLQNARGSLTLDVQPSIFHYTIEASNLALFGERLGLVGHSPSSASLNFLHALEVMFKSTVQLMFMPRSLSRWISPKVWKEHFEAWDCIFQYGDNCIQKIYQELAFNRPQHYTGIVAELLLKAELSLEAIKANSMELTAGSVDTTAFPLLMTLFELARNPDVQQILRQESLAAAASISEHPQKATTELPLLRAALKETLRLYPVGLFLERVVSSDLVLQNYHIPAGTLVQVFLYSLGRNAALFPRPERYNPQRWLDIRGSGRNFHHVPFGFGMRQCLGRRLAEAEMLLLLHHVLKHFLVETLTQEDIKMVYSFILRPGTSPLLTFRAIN
The experiment can be described thus: G-402 cellular enzyme assay, human CYP11B2 (aldosterone release, HTRF). The experiment is classed as cell-based. The conditions noted are these: G-402 cells, 1 μM Deoxycorticosterone. The gist of the method: (§1)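 Cellular format in stably transfected G-402 cells over 16 h. HTRF quantified aldosterone (CYP11B2, 1 μM deoxycorticosterone substrate) or cortisol (CYP11B1, 1 μM deoxycortisol substrate); EC50 obtained by fitting a 4-parameter sigmoid to dose–response data.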
Background: In TR-FRET formats the signal depends on donor and acceptor labels being close together.

For a further experiment, the target named is T2, human CYP11B1 (Homo sapiens, UniProt P15538).
T2 construct: expressed in transfected cells
T2 sequence (P15538 25-503): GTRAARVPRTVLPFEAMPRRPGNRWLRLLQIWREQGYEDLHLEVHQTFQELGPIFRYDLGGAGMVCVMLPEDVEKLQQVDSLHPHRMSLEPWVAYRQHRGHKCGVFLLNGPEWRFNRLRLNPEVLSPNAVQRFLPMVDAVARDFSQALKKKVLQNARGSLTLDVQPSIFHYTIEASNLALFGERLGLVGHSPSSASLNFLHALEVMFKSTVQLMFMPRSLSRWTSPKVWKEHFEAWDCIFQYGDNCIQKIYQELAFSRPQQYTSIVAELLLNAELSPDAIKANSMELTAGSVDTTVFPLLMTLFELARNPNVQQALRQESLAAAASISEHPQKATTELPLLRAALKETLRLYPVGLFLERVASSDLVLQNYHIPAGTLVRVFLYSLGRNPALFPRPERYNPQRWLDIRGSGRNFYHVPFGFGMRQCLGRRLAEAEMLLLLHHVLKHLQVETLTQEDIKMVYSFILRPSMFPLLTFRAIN
As to the kind of experiment: G-402 cellular enzyme assay, human CYP11B1 (cortisol release, HTRF). Type of experiment: cell-based. The conditions noted are these: G-402 cells, 1 μM Deoxycortisol. The procedure, abridged:
as §1

This passage reports EC50 results from patent US9133158B2, “Bicyclic dihydroisoquinoline-1-one derivatives” (Hoffmann-La Roche Inc., priority 2011, dated 2015).

`Cn1ccnc1C(O)c1cncc(N2CCc3cc(Cl)ccc3C2=O)c1` (stereo not drawn) [Example 30, 6-Chloro-2-{5-[hydroxy-(1-methyl-1H-imidazol-2-yl)-methyl]-pyridin-3-yl}-3,4-dihydro-2H-isoquinolin-1-one]: the figures for the EC50 at human CYP11B2 and on human CYP11B1 were 751 nM and 2070 nM, respectively.
Regarding `Cn1ncnc1-c1cncc(N2CCc3cc(Cl)ccc3C2=O)c1` [Example 67, 6-Chloro-2-[5-(2-methyl-2H-[1,2,4]triazol-3-yl)-pyridin-3-yl]-3,4-dihydro-2H-isoquinolin-1-one], the figures for the EC50 at human CYP11B2 and at human CYP11B1 were 102 nM and 1200 nM, respectively.
For `O=C(NC1CC1)c1cncc(N2CCc3cc(Cl)ccc3C2=O)c1` [Example 44, 5-(6-Chloro-1-oxo-3,4-dihydro-1H-isoquinolin-2-yl)-N-cyclopropyl-nicotinamide], the figures for the EC50 on human CYP11B2 and on human CYP11B1 were 5930 nM and 16900 nM, respectively.
Consider `O=C1c2ccc(Cl)cc2CCN1c1cncc(NS(=O)(=O)C2CC2)c1` [Example 221, Cyclopropanesulfonic acid [5-(6-chloro-1-oxo-3,4-dihydro-1H-isoquinolin-2-yl)-pyridin-3-yl]-amide], for which the EC50 (as a rule, the concentration at which the effect is half-maximal) was 2160 nM on human CYP11B2 and 10100 nM on human CYP11B1.
Turning to `O=C1c2ccc(Cl)cc2CCN1c1cncc(CNc2ccc(F)cc2)c1` [Example 258, 6-Chloro-2-{5-[(4-fluoro-phenylamino)-methyl]-pyridin-3-yl}-3,4-dihydro-2H-isoquinolin-1-one], the results for the EC50 on human CYP11B2 and at human CYP11B1 were 3.7 nM and 41.8 nM, respectively.
With `O=C1c2ccc(Cl)cc2CCN1c1cnccc1Cl` [Example 6, 6-Chloro-2-(4-chloro-pyridin-3-yl)-3,4-dihydro-2H-isoquinolin-1-one], the values for the EC50 on human CYP11B2 and on human CYP11B1 were 30 nM and 1210 nM, respectively.
As for `CC1Cc2cccc(Cl)c2C(=O)N1c1cccnc1` (stereo not drawn) [Example 93, 8-Chloro-3-methyl-2-pyridin-3-yl-3,4-dihydro-2H-isoquinolin-1-one], the figures for the EC50 at human CYP11B2 and at human CYP11B1 were 775 nM and 14000 nM, respectively.
`CC(O)c1cncc(N2CCc3cc(Cl)ccc3C2=O)c1` (stereo not drawn) [Example 13, 6-Chloro-2-[5-(1-hydroxy-ethyl)-pyridin-3-yl]-3,4-dihydro-2H-isoquinolin-1-one]: the values for the EC50 on human CYP11B2 and on human CYP11B1 were 54.3 nM and 865 nM, respectively.
In the case of `CC1(C)c2cc(Cl)ccc2C(=O)N1c1cncc(CNc2cc[nH]n2)c1` [Example 381, 5-Chloro-3,3-dimethyl-2-{5-[(1H-pyrazol-3-ylamino)-methyl]-pyridin-3-yl}-2,3-dihydro-isoindol-1-one], the EC50 worked out at 3.4 nM on human CYP11B2 and 138 nM on human CYP11B1.
Consider `Cc1n[nH]c(C)c1-c1cncc(N2CCc3cc(Cl)ccc3C2=O)c1` [Example 79, 6-Chloro-2-[5-(3,5-dimethyl-1H-pyrazol-4-yl)-pyridin-3-yl]-3,4-dihydro-2H-isoquinolin-1-one], for which the EC50 at human CYP11B2 was 5.1 nM; on human CYP11B1, 34 nM.
On to `O=C1c2ccc(Cl)cc2CCN1c1cncc(CN2CCN(CCO)CC2)c1` [Example 165, 6-Chloro-2-{5-[4-(2-hydroxy-ethyl)-piperazin-1-ylmethyl]-pyridin-3-yl}-3,4-dihydro-2H-isoquinolin-1-one], for which the EC50 turned out to be 3.5 nM at human CYP11B2 and 60.4 nM on human CYP11B1.
For `CC[C@@H]1c2cc(Cl)ccc2C(=O)N1c1cncc2c1CC[C@@H]2NS(C)(=O)=O` (single isomer, unassigned) [Example 367, N-[(S or R)-4-((R or S)-5-Chloro-3-ethyl-1-oxo-1,3-dihydro-isoindol-2-yl)-6,7-dihydro-5H-[2]pyrindin-7-yl]-methanesulfonamide], the EC50 was determined as 62.1 nM on human CYP11B2 and 5240 nM at human CYP11B1.
With `CCOc1ccc2c(n1)C(C)(C)N(c1cncc(OC(F)F)c1)C2=O` [Example 303, 6-(5-Difluoromethoxy-pyridin-3-yl)-2-ethoxy-7,7-dimethyl-6,7-dihydro-pyrrolo[3,4-b]pyridin-5-one], the EC50 at human CYP11B2 turned out to be 93.6 nM; at human CYP11B1, 12600 nM.
On to `CCC(=O)N[C@@H]1CCCc2c1cncc2N1C(=O)c2ccc(Cl)cc2[C@H]1CC` (single isomer, unassigned) [Example 354, N-[(R or S)-4-((R or S)-5-Chloro-3-ethyl-1-oxo-1,3-dihydro-isoindol-2-yl)-5,6,7,8-tetrahydro-isoquinolin-8-yl]-propionamide], for which the results for the EC50 at human CYP11B2 and on human CYP11B1 were 12.2 nM and 345 nM, respectively.
For the molecule `O=C1CCCN1Cc1cncc(N2CCc3cc(Cl)ccc3C2=O)c1` [Example 155, 6-Chloro-2-[5-(2-oxo-pyrrolidin-1-ylmethyl)-pyridin-3-yl]-3,4-dihydro-2H-isoquinolin-1-one], the EC50 on human CYP11B2 is 132 nM; at human CYP11B1 it was 4090 nM.
Consider `Cc1ccn(Cc2cncc(N3CCc4cc(Cl)ccc4C3=O)c2)n1` [Example 190, 6-Chloro-2-[5-(3-methyl-pyrazol-1-ylmethyl)-pyridin-3-yl]-3,4-dihydro-2H-isoquinolin-1-one], for which the EC50 is 328 nM at human CYP11B2 and 7320 nM at human CYP11B1.
On to `O=C1c2ccc(Cl)cc2CCN1c1cncc(Cn2cccn2)c1` [Example 160, 6-Chloro-2-(5-pyrazol-1-ylmethyl-pyridin-3-yl)-3,4-dihydro-2H-isoquinolin-1-one], for which the EC50 turned out to be 36.1 nM at human CYP11B2 and 418 nM at human CYP11B1.
On the same counts, the results for `O=C1c2ccc(Cl)cc2CN1c1cncc(Cn2cncn2)c1` [Example 110, 5-Chloro-2-(5-[1,2,4]triazol-1-ylmethyl-pyridin-3-yl)-2,3-dihydro-isoindol-1-one] are 184 nM and 1280 nM.
In the case of `O=C1c2ccc(Cl)cc2CCN1c1cncc(CN2CCC(O)C2)c1` (stereo not drawn) [Example 146, 6-Chloro-2-[5-(3-hydroxy-pyrrolidin-1-ylmethyl)-pyridin-3-yl]-3,4-dihydro-2H-isoquinolin-1-one], the figures for the EC50 at human CYP11B2 and at human CYP11B1 were 39.8 nM and 114 nM, respectively.
`CNC(=O)COc1cncc(N2CCc3cc(Cl)ccc3C2=O)c1` [Example 254, 2-[5-(6-Chloro-1-oxo-3,4-dihydro-1H-isoquinolin-2-yl)-pyridin-3-yloxy]-N-methyl-acetamide]: the EC50 on human CYP11B2 is 2130 nM; on human CYP11B1 it was 32500 nM.
On the same counts, the results for `O=C1c2ccc(Cl)cc2CCN1c1cncc(CN2CC[C@@H](O)C2)c1` [Example 147, 6-Chloro-2-[5-((R)-3-hydroxy-pyrrolidin-1-ylmethyl)-pyridin-3-yl]-3,4-dihydro-2H-isoquinolin-1-one] are 36.7 nM and 247 nM.
`CCC(=O)N[C@@H]1CCCc2c1cncc2N1C(=O)c2ccc(Cl)cc2[C@@H]1CC` (single isomer, unassigned) [Example 353, N-[(R or S)-4-((S or R)-5-Chloro-3-ethyl-1-oxo-1,3-dihydro-isoindol-2-yl)-5,6,7,8-tetrahydro-isoquinolin-8-yl]-propionamide]: the EC50 at human CYP11B2 came to 396 nM; on human CYP11B1 it was 16200 nM.
With `O=C1c2ccc(Cl)cc2CCN1c1cncc(C(O)C2CC2)c1` (stereo not drawn) [Example 20, 6-Chloro-2-[5-(cyclopropyl-hydroxy-methyl)-pyridin-3-yl]-3,4-dihydro-2H-isoquinolin-1-one], the EC50 on human CYP11B2 amounted to 85.9 nM; at human CYP11B1 it was 1050 nM.
In the case of `CC1(C)c2cc(C#N)ccc2C(=O)N1c1cncc(CNS(C)(=O)=O)c1` [Example 402, N-[5-(6-Cyano-1,1-dimethyl-3-oxo-1,3-dihydro-isoindol-2-yl)-pyridin-3-ylmethyl]-methane-sulfonamide], the EC50 at human CYP11B2 amounted to 34.2 nM; on human CYP11B1, 2210 nM.
